Here are results for five compounds from publication PMC9090415, “Discovery of small molecule inhibitors of Plasmodium falciparum apicoplast DNA polymerase” (Journal of Enzyme Inhibition and Medicinal Chemistry, 2022).

A word on the IC50: it is the concentration needed to halve the response being measured.

The structures appear in SMILES notation.

This assay has as its target P. falciparum apicoplast DNA polymerase (Pf-apPOL) (Plasmodium falciparum, UniProt Q8ILY1). The assay is described as follows: Fluorescence-based high-throughput DNA polymerase assay (molecular beacon), primary screen and dose-response.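 As to % inhibition ApPOL 90': test concentration in µM.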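 As to % inhibition apPOL 180': test concentration in µM.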 Format: biochemical. The essentials:
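Single-point screening used 10 µM compound with 20 nM polymerase, 20 nM hairpin substrate and 6 µM dNTPs for 90 min at 25 °C. Confirmatory titrations (2.5–80 µM) followed fluorescence at three times, and IC50 was derived from a fit including a cooperativity term n.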

Setting [1] is: supplemental file 2, sheet IC50 nontoxic compounds; Pf-apPOL.

P. falciparum apicoplast DNA polymerase (Pf-apPOL), sequence (Q8ILY1 entry or part of it): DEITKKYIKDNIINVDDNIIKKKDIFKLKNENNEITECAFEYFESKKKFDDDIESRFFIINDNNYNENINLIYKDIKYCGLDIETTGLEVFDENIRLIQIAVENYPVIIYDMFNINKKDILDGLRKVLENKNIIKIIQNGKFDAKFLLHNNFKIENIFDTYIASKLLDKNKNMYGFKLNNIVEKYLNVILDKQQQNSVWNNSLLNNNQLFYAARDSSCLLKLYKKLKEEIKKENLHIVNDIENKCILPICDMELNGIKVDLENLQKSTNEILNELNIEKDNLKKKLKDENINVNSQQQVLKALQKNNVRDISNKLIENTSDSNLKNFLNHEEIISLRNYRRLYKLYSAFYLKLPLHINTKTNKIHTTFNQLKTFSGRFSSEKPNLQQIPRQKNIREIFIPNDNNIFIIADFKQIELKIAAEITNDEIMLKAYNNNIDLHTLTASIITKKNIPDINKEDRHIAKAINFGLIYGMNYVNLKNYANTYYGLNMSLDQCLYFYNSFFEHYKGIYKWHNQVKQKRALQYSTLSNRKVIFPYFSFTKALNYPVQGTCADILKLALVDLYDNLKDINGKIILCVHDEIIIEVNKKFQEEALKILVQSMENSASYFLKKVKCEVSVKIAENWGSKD

Consider `CCOc1ccccc1-c1nc(-c2ccc(=O)[nH]c2)no1` [Molecule 76, CCOc1ccccc1c1onc(n1)c1ccc(=O)[nH]c1], for which the “DNA Pol” value is recorded as 20 ('DNA Pol'; screening value, unit not given; 90 min, 10 µM) and 20 (primary screen hit value, DNA Pol (186 hits); 90 min, 10 µM). For the same compound, the “% inhibition Apo pol 10'” value runs as follows: (DRC-1; 10'; concentration 2.5) 0.6967%; (DRC-1; 10'; concentration 5) 11.2745%; (DRC-1; 10'; concentration 10) 18.9586%; (DRC-1; 10'; concentration 20) 38.1067%; (DRC-1; 10'; concentration 40) 53.5893%; (DRC-1; 10'; concentration 80) 52.085%. Further, the “% inhibition Apol 90'” value by setting is: (DRC-1; 90'; concentration 2.5) 1.791%; (DRC-1; 90'; concentration 5) 6.12%; (DRC-1; 90'; concentration 10) 9.377%; (DRC-1; 90'; concentration 20) 23.8682%; (DRC-1; 90'; concentration 40) 40.5664%; (DRC-1; 90'; concentration 80) 58.194%. For the same compound, the “% inhibition apPOL 180'” value reads like this: (DRC-1; 180'; concentration 2.5) 0.4069%; (DRC-1; 180'; concentration 5) -0.1254%; (DRC-1; 180'; concentration 10) 3.145%; (DRC-1; 180'; concentration 20) 13.7998%; (DRC-1; 180'; concentration 40) 29.3034%; (DRC-1; 180'; concentration 80) 52.1842%. In addition, the “% inhibition apPOL 180'” value runs as follows: (DRC-2, 180', concentration 2.5) -3%; (DRC-2, 180', concentration 5) 1.18%; (DRC-2, 180', concentration 10) 8%; (DRC-2, 180', concentration 20) 16%; (DRC-2, 180', concentration 40) 37%; (DRC-2, 180', concentration 80) 54%. Moreover, the “% inhibition Apo pol 5'” value is -5.31% (DRC-2, 5', concentration 2.5); 5% (DRC-2, 5', concentration 5); 19% (DRC-2, 5', concentration 10); 30% (DRC-2, 5', concentration 20); 44% (DRC-2, 5', concentration 40); 29% (DRC-2, 5', concentration 80). Further, the “% inhibition Apo pol 5'” value by setting is: (conc 5 (unit not given); 5'; DRC-2) 5%; (conc 20 (unit not given); 5'; DRC-2) 30%. Further, the “% inhibition Apol 40'” value is 0.0959% (DRC-2, 40', concentration 2.5); 6.65% (DRC-2, 40', concentration 5); 18% (DRC-2, 40', concentration 10); 30% (DRC-2, 40', concentration 20); 50% (DRC-2, 40', concentration 40); 55% (DRC-2, 40', concentration 80). Moreover, the “% inhibition Apol 40'” value (conc 20 (unit not given); 40'; DRC-2) is recorded as 30%. Besides, the “% inhibition ApPOL 90'” value runs as follows: (DRC-2, 90', concentration 2.5) -0.625%; (DRC-2, 90', concentration 5) 5%; (DRC-2, 90', concentration 10) 15%; (DRC-2, 90', concentration 20) 26%; (DRC-2, 90', concentration 40) 48%; (DRC-2, 90', concentration 80) 56%. The “% inhibition ApPOL 90'” value (conc 5 (unit not given); 90'; DRC-2) was 5%.

As to `COc1ccccc1CCC(=O)N1CCc2c(nc3cc(-c4ccccc4)[nH]n3c2=O)C1` [Molecule 7], the IC50 under setting [1] came to 7.2 µM.

As for `CO/N=C(\C(=O)N[C@@H]1C(=O)N2C(C(=O)[O-])=C(CSc3nc(=O)c([O-])nn3C)CSC12)c1csc(N)n1.[Na+].[Na+]` (stereo partly drawn) [Molecule 83, CO/N=C(/c1csc(n1)N)\C(=O)N[C@@H]1C(=O)N2C1SCC(=C2C(=O)[O-])CSc1nc(=O)c(nn1C)[O-].[Na+].[Na+]], the “DNA Pol” value (186 hits, value of the hit list (primary screen); unit not given; 90 min, 10 µM) is 48 and the “DNA Pol” value (primary screen value, 'DNA Pol' only; 90 min, 10 µM) is recorded as 48. Also, the “% inhibition Apo pol 10'” value stood at 18.7657% (DRC-1; 10'; concentration 2.5); 26.0446% (DRC-1; 10'; concentration 5); 38.6298% (DRC-1; 10'; concentration 10); 50.9335% (DRC-1; 10'; concentration 20); 64.2256% (DRC-1; 10'; concentration 40); 74.1492% (DRC-1; 10'; concentration 80). Besides, the “% inhibition Apol 90'” value (DRC-1; 90'; concentration 2.5) is given as -5.899%; the “% inhibition Apol 90'” value (DRC-1; 90'; concentration 5) was -4.018%; the “% inhibition Apol 90'” value (DRC-1; 90'; concentration 10) amounted to 2.565%; the “% inhibition Apol 90'” value (DRC-1; 90'; concentration 20) came to 10.9979%; the “% inhibition Apol 90'” value (DRC-1; 90'; concentration 40) is 25.6327%; the “% inhibition Apol 90'” value (DRC-1; 90'; concentration 80) was determined as 43.9979%. The “% inhibition apPOL 180'” value (DRC-1; 180'; concentration 2.5) was -15.6799%; the “% inhibition apPOL 180'” value (DRC-1; 180'; concentration 5) is given as -16.0147%; the “% inhibition apPOL 180'” value (DRC-1; 180'; concentration 10) is -9.688%; the “% inhibition apPOL 180'” value (DRC-1; 180'; concentration 20) was -2.55%; the “% inhibition apPOL 180'” value (DRC-1; 180'; concentration 40) amounted to 10.5527%; the “% inhibition apPOL 180'” value (DRC-1; 180'; concentration 80) is 28.4912%. The “% inhibition apPOL 180'” value reads like this: (DRC-2, 180', concentration 2.5) -10%; (DRC-2, 180', concentration 5) -12%; (DRC-2, 180', concentration 10) -7%; (DRC-2, 180', concentration 20) 5%; (DRC-2, 180', concentration 40) 21%; (DRC-2, 180', concentration 80) 48%. In addition, under “DRC-2; 180'; concentration 10”, the “% inhibition apPOL 180'” value is given as -7%. The “% inhibition Apo pol 5'” value amounted to 1.37% (DRC-2, 5', concentration 2.5); 6% (DRC-2, 5', concentration 5); 18% (DRC-2, 5', concentration 10); 30% (DRC-2, 5', concentration 20); 42% (DRC-2, 5', concentration 40); 54% (DRC-2, 5', concentration 80). Also, the “% inhibition Apo pol 5'” value (DRC-2; 5'; concentration 20) is listed as 30%. In addition, the “% inhibition Apol 40'” value by setting is: (DRC-2, 40', concentration 2.5) -6%; (DRC-2, 40', concentration 5) -1.68%; (DRC-2, 40', concentration 10) 9%; (DRC-2, 40', concentration 20) 20%; (DRC-2, 40', concentration 40) 37%; (DRC-2, 40', concentration 80) 59%. Besides, the “% inhibition ApPOL 90'” value (DRC-2, 90', concentration 2.5) is -8%; the “% inhibition ApPOL 90'” value (DRC-2, 90', concentration 5) is listed as -7%; the “% inhibition ApPOL 90'” value (DRC-2, 90', concentration 10) is given as 1.87%; the “% inhibition ApPOL 90'” value (DRC-2, 90', concentration 20) is 12%; the “% inhibition ApPOL 90'” value (DRC-2, 90', concentration 40) is reported as 30%; the “% inhibition ApPOL 90'” value (DRC-2, 90', concentration 80) came to 56%. Besides, the “% inhibition ApPOL 90'” value is -7% (DRC-2; 90'; concentration 5) and 30% (DRC-2; 90'; concentration 40).

Regarding `COc1ccc2c(c1)C(c1ccccc1OC)CC(=O)O2` (stereo not drawn) [Molecule 38], the IC50 under setting [1] turned out to be 11.2 µM.

With `CCOc1cccc2cc(C(=O)Nc3nnc(-c4ccno4)o3)oc12` [Molecule 28], the IC50 under setting [1] is 7.04 µM.
